Like-named read-outs stand apart in the source and are kept apart here.
How the values were obtained:
[1] = system: OVISE (JCRB1043, CCNE1-amplified); assay: OVISE EdU incorporation cell proliferation assay (CDK2-dependent); format: cell-based; conditions: for IC50: cellular assay, read-out: CDK2 OVISE IC50; for FS SKOV-3/OVISE / FS p-H3/OVISE: fold selectivity; for FS p-H3/OVISE: cellular p-H3 IC50 over OVISE IC50; for CDK2 cell potency compared with Comparator E: CDK2 OVISE cellular assay data; for CDK2 OVISE IC50 fold change in potency versus Comparator D: Table R; for CDK2 OVISE IC50 fold change in potency versus Comparator E: Table S
Method in brief: (§1)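 EdU incorporation (0.5 μM final, last 8 h) follows a 16 h compound exposure at 37 °C, 5% CO2 in RPMI plus 10% FBS, 0.5% DMSO. After fixation, imaging scores EdU-positive cells; a 4-parameter logistic fit of that fraction gives IC50.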

[2] = target: T1, Cyclin Dependent Kinase 2/Cyclin E1 (CDK2-cycE1) (Homo sapiens, UniProt P24941); assay: CDK2-cycE1 TR-FRET (LANCE) enzyme assay; format: biochemical; conditions: for FS CDK1/CDK2 / FS CDK4/CDK2: fold selectivity; for CDK2 Ki fold change in potency versus Comparator D / CDK2 Ki fold change in potency versus Comparator E: in brackets after CDK2 Ki;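 as to improvement in potency against CDK2 (Ki) over Comparator C: fold lower CDK2 Ki than comparator c (Ki 0.032 µM)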
T1 construct: purchased ProQinase 0050-0055-1
Method in brief: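 Kinase reaction buffer: 50 mM HEPES pH 7.5, 10 mM MgCl2, 2 mM TCEP, 0.05% BGG, 0.01% Brij 35, with 30 min compound–enzyme pre-incubation.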

HCT116 cells = assay: p-H3 HCT-116 mitotic release cell proliferation assay (cellular CDK1); format: cell-based; conditions: Homo sapiens, HCT-116; Table O, cellular assay; read-out: CDK1 p-H3 IC50
Method in brief: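 Phospho-Histone H3 (Ser10) in lysates was quantified by a two-antibody HTRF FRET read (≥2 h, room temperature). Before this, HCT116 cells held in mitosis by 16 h of 500 nM nocodazole were treated with compound for 4 h at 37 °C, 0.1% DMSO.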

[3] = target: T2, Cyclin Dependent Kinase 4/Cyclin D3 (CDK4-cycD3) (Homo sapiens, UniProt P11802); assay: CDK4-cycD3 TR-FRET (LANCE) enzyme assay; format: biochemical; conditions: for Ki: Table O, enzymatic assay; for FS CDK4/CDK2: fold selectivity, enzymatic Ki ratio
T2 construct: purchased Carna Biosciences 04-105
T2 sequence (P11802 whole entry): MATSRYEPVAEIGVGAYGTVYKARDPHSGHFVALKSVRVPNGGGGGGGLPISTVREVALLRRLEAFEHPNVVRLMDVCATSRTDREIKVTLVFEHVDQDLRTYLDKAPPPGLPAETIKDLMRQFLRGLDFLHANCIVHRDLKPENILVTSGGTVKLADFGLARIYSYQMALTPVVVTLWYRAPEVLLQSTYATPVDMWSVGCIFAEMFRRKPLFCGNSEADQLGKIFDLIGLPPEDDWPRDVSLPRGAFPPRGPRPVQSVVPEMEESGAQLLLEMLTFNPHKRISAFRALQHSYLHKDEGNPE
T2 sequence (P30281 whole entry partner): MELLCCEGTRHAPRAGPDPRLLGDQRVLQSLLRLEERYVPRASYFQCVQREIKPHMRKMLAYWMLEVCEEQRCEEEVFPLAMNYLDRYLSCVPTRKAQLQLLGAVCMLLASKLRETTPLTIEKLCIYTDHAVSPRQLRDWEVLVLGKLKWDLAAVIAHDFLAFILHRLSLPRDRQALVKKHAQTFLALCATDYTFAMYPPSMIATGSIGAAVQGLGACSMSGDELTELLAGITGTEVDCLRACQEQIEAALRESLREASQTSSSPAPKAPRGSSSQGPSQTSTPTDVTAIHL
Method in brief: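 Compound dose responses pre-incubated 30 min with enzyme mix in 50 mM HEPES pH 7.5, 10 mM MgCl2, 2 mM TCEP, 0.05% BGG, 0.01% Brij 35. Reaction quenched with EDTA (15 mM final); Eu-anti-phospho-4E-BP1 TR-FRET detection, acceptor/donor ratio. Ki derived by Morrison equation.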

[4] = target: T3, Cyclin Dependent Kinase 1/Cyclin A2 (CDK1-cycA2) (Homo sapiens, UniProt P06493); assay: CDK1-cycA2 TR-FRET (Lance) enzyme assay; format: biochemical; conditions: for Ki: Table O, enzymatic assay; for FS CDK1/CDK2: fold selectivity, enzymatic Ki ratio
T3 construct: purchased ProQinase 0134-0054-1
T3 sequence (P06493 whole entry): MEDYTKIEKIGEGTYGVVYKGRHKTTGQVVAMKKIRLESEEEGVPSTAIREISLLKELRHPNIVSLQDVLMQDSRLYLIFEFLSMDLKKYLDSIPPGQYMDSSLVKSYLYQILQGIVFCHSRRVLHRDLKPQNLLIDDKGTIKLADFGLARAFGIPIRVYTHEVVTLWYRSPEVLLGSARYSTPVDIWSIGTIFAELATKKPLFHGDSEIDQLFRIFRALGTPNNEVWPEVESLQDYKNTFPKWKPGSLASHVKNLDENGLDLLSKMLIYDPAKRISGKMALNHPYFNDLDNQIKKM
T3 sequence (P20248 whole entry partner): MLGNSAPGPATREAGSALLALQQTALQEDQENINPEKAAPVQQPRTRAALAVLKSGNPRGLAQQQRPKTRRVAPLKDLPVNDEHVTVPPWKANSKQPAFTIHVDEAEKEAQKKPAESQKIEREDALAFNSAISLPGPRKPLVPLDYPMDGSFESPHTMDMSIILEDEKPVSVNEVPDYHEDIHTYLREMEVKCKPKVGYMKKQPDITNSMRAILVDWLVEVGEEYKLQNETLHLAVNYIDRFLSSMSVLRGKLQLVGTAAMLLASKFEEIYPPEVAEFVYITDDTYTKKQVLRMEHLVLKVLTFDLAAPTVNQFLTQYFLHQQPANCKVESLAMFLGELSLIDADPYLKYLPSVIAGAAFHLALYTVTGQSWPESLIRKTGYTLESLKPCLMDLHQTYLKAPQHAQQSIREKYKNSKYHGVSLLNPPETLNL
Method in brief: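 TR-FRET (Lance) detection of phospho-4E-BP1 with a europium-labelled antibody after EDTA quench (15 mM final); signal taken as acceptor/donor ratio. Enzyme and compound were pre-incubated 30 min in HEPES pH 7.5 buffer with MgCl2, TCEP, BGG and Brij 35. Ki derived by Morrison fit.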

SKOV-3 (ATCC HTB-77) = assay: SKOV-3 EdU incorporation cell proliferation assay (CDK4/6-dependent); format: cell-based; conditions: for IC50: Homo sapiens, cellular assay, read-out: CDK4/6 SKOV-3 IC50; for selectivity for CDK2 over CDK4 compared with Comparator E: SKOV-3/OVISE fold-selectivity cellular assay data; for FS SKOV-3/OVISE: fold selectivity, cellular IC50 ratio
Method in brief: as §1

[5] = Table O, cellular SKOV-3 IC50 over OVISE IC50
[6] = Table O, enzymatic assay, read-out: CDK2 Ki
[7] = Table O, enzymatic CDK1 Ki over CDK2 Ki
[8] = Table O, enzymatic CDK4 Ki over CDK2 Ki
[9] = Table R, enzymatic assay, read-out: CDK2 Ki
[10] = Table S, enzymatic assay, read-out: CDK2 Ki

SMILES	IC50 ([1]; Table O)	FS SKOV-3/OVISE [1, 5]	FS p-H3/OVISE ([1]; Table O)	Ki [2, 6]	FS CDK1/CDK2 [2, 7]	FS CDK4/CDK2 [2, 8]	IC50 (HCT116 cells)	Ki [3]	Ki [4]	IC50 (SKOV-3 (ATCC HTB-77); SK-OV-3, Table O)	CDK2 cell potency compared with Comparator E [1]	CDK2 OVISE IC50 fold change in potency versus Comparator D ([1]; in brackets after OVISE IC50)	CDK2 OVISE IC50 fold change in potency versus Comparator E ([1]; in brackets after OVISE IC50)	Ki [2, 9]	CDK2 Ki fold change in potency versus Comparator D ([2]; Table R)	Ki [2, 10]	CDK2 Ki fold change in potency versus Comparator E ([2]; Table S)	FS CDK4/CDK2 increased over Comparator D, (+) sign ([3]; Table R)	FS CDK4/CDK2 ([3]; Table R)	FS CDK4/CDK2 ([3]; Table S)	also measured
Cc1nc(C(=O)N(C)C)ccc1Nc1cc([C@H]2CC[C@@H](OC(=O)NC3(C)CC3)C2)[nH]n1 [Example 7, (1R,3S)-3-(3-((6-(dimethylcarbamoyl)-2-methylpyridin-3-yl)amino)-1H-pyrazol-5-yl)cyclopentyl (1-methylcyclopropyl)carbamate]	58 nM	66	0.86	0.36 nM	64	110	50 nM	38 nM	23 nM	3800 nM											Ki ([2]; read-out: CDK2 activity / potency (enzymatic assay)): ≤ 1 nM
CN(C(=O)O[C@@H]1CC[C@H](c2cc(Nc3ccc(=O)n(C)n3)n[nH]2)C1)C(C)(C)C [Example 6B, (1R,3S)-3-(3-((1-methyl-6-oxo-1,6-dihydropyridazin-3-yl)amino)-1H-pyrazol-5-yl)cyclopentyl tert-butyl(methyl)carbamate]	27 nM	14	0.32	< 0.1 nM	>12	>120	8.7 nM	7.4 nM	0.78 nM	390 nM											
Cn1nc(Nc2cc([C@H]3CC[C@@H](OC(=O)NC(C)(C)C)C3)[nH]n2)ccc1=O [Example 6C, (1R,3S)-3-(3-((1-methyl-6-oxo-1,6-dihydropyridazin-3-yl)amino)-1H-pyrazol-5-yl)cyclopentyl tert-butylcarbamate]	30 nM	50	0.087	< 0.1 nM	>47	>584	26 nM	45 nM	3.6 nM	1500 nM	more potent CDK2 cell inhibitors compared to Comparator E	127 fold	5.7 fold	< 0.1 nM	27 fold	< 0.1 nM	5.2 fold	(+)	> 584	> 584	FS CDK4/CDK2 increased over Comparator E, (+) sign ([3]; Table S): (+); FS CDK1/CDK2 increased over Comparator D, (+) sign ([4]; Table R): (+); FS CDK1/CDK2 ([4]; Table R): > 47; FS CDK1/CDK2 increased over Comparator E, (+) sign ([4]; Table S): (+); FS CDK1/CDK2 ([4]; Table S): > 47; selectivity for CDK2 over CDK4 compared with Comparator E (SKOV-3 (ATCC HTB-77)): increase in selectivity for CDK2 over CDK4; FS SKOV-3/OVISE increased over Comparator D, (+) sign (SKOV-3 (ATCC HTB-77); Table R): (+); FS SKOV-3/OVISE (SKOV-3 (ATCC HTB-77); Table R): 50; FS SKOV-3/OVISE increased over Comparator E, (+) sign (SKOV-3 (ATCC HTB-77); Table S): (+); FS SKOV-3/OVISE (SKOV-3 (ATCC HTB-77); Table S): 50
CC1(NC(=O)O[C@@H]2CC[C@H](c3cc(Nc4cccnn4)n[nH]3)C2)CNC1 [Example 3F, (1R,3S)-3-(3-(pyridazin-3-ylamino)-1H-pyrazol-5-yl)cyclopentyl (3-methylazetidin-3-yl)carbamate]	320 nM	4.1	1.1	4 nM	27	6	350 nM	24 nM	110 nM	1300 nM											
Cn1cnc(Nc2cc([C@H]3CC[C@@H](OC(=O)NC45CC(C4)C5)C3)[nH]n2)cc1=O [Example 9B, (1R,3S)-3-(3-((1-methyl-6-oxo-1,6-dihydropyrimidin-4-yl)amino)-1H-pyrazol-5-yl)cyclopentyl bicyclo[1.1.1]pentan-1-ylcarbamate]	33 nM	14	1.4	0.35 nM	34	60	46 nM	21 nM	12 nM	470 nM											
CC(C)NC(=O)O[C@@H]1CC[C@H](c2cc(Nc3cccnc3)n[nH]2)C1 [Example 2A, (1R,3S)-3-(3-(pyridin-3-ylamino)-1H-pyrazol-5-yl)cyclopentyl isopropylcarbamate]	110 nM	20	0.66	1.7 nM	42	44	94 nM	75 nM	71 nM	2200 nM	more potent CDK2 cell inhibitors compared to Comparator E	35 fold	1.5 fold	1.7 nM	1.6 fold	1.7 nM	0.3 fold	(+)	44	44	increased fold-selectivity SKOV-3/OVISE over Comparator C ([1]; Table Q, (+) sign after FS SKOV-3/OVISE): (+) (The (+) sign in Table Q signifies desirable increased fold-selectivity of the exemplary compounds over Comparator C); FS SKOV-3/OVISE ([1]; Table Q, cellular): 20; improvement in CDK2 OVISE cell potency over Comparator C ([1]; Table Q, in brackets after OVISE IC50, Comparator C 5.5 μM): 50 fold; improvement in potency against CDK2 (Ki) over Comparator C [2]: 19 fold; increased fold-selectivity CDK1/CDK2 over Comparator C ([2]; Table Q, (+) sign after FS CDK1/CDK2): (+) (The (+) sign in Table Q signifies desirable increased fold-selectivity of the exemplary compounds over Comparator C); increased fold-selectivity CDK4/CDK2 over Comparator C ([2]; Table Q, (+) sign after FS CDK4/CDK2): (+) (The (+) sign in Table Q signifies desirable increased fold-selectivity of the exemplary compounds over Comparator C); Ki ([2]; Table Q, enzymatic assay, read-out: CDK2 Ki): 1.7 nM; FS CDK1/CDK2 ([2]; Table Q, enzymatic): 42; FS CDK4/CDK2 ([2]; Table Q, enzymatic): 44; FS CDK1/CDK2 increased over Comparator D, (+) sign ([4]; Table R): (+); FS CDK1/CDK2 ([4]; Table R): 42; FS CDK1/CDK2 ([4]; Table S): 42; IC50 (SKOV-3 (ATCC HTB-77); SK-OV-3, Table Q): 2200 nM; IC50 (SKOV-3 (ATCC HTB-77); SK-OV-3, Table R): 2200 nM; IC50 (SKOV-3 (ATCC HTB-77); SK-OV-3, Table S): 2200 nM; selectivity for CDK2 over CDK4 compared with Comparator E (SKOV-3 (ATCC HTB-77)): increase in selectivity for CDK2 over CDK4; FS SKOV-3/OVISE increased over Comparator D, (+) sign (SKOV-3 (ATCC HTB-77); Table R): (+); FS SKOV-3/OVISE (SKOV-3 (ATCC HTB-77); Table R): 20; FS SKOV-3/OVISE increased over Comparator E, (+) sign (SKOV-3 (ATCC HTB-77); Table S): (+); FS SKOV-3/OVISE (SKOV-3 (ATCC HTB-77); Table S): 20

From patent US20240425478A1, “CYCLOPENTYLPYRAZOLE CDK2 INHIBITORS” (Genentech, Inc., priority 2021, published 2024)
